Measurements published in ChEMBL document CHEMBL5241090, “A comprehensive overview of β-carbolines and its derivatives as anticancer agents” (Eur J Med Chem, 2021).
In brackets after ≈: the same amount, converted by molar mass.

Tests used:
[1] = system: MCF7; assay: Cytotoxicity against human MCF7 cells measured after 48 hrs by MTT assay; type: functional, cell-based; conditions: MCF7, 48 h
[2] = system: HeLa; assay: Cytotoxicity against human HeLa cells measured after 48 hrs by MTT assay; type: functional, cell-based
[3] = system: PC-3; assay: Cytotoxicity against human PC-3 cells measured after 48 hrs by MTT assay; type: functional, cell-based; conditions: PC-3, 48 h
[4] = system: HGC-27; assay: Cytotoxicity against human HGC-27 cells measured after 48 hrs by MTT assay; type: functional, cell-based; conditions: HGC-27, 48 h
[5] = system: TERT-RPE1; assay: Cytotoxicity against human TERT-RPE1 cells; type: functional, cell-based; conditions: RPE-1
[6] = system: HUVEC; assay: Cytotoxicity against human HUVEC cells; type: functional, cell-based
[7] = system: LNCaP; assay: Cytotoxicity against human LNCaP cells; type: functional, cell-based
[8] = Cytotoxicity against human Lu1 cells; type: functional, cell-based
[9] = system: Col2; assay: Cytotoxicity against human Col2 cells; type: functional, cell-based
[10] = system: MCF7; assay: Cytotoxicity against human MCF7 cells by MTT assay; type: functional, cell-based
[11] = system: OVCAR-3; assay: Cytotoxicity against human OVCAR-3 cells by MTT assay; type: functional, cell-based
[12] = system: HCT-116; assay: Cytotoxicity against human HCT-116 cells by MTT assay; type: functional, cell-based
[13] = system: KB; assay: Cytotoxicity against human KB cells assessed as inhibition of growth measured after 1 day by hemacytometer; type: functional; conditions: 24 h, read-out: ED50 (the source's name)
[14] = system: A549; assay: Cytotoxicity against human A549 cells measured after 48 hrs by MTT assay; type: functional, cell-based; conditions: A549, 48 h
[15] = system: SGC-7901; assay: Cytotoxicity against human SGC-7901 cells measured after 48 hrs by MTT assay; type: functional, cell-based; conditions: SGC-7901, 48 h
[16] = system: SMMC-7721; assay: Cytotoxicity against human SMMC-7721 cells measured after 48 hrs by MTT assay; type: functional, cell-based; conditions: SMMC-7721, 48 h
[17] = system: NCI-H187; assay: Cytotoxicity against human NCI-H187 cells; type: functional, cell-based
[18] = system: HepG2; assay: Cytotoxicity against human HepG2 cells; type: functional, cell-based; conditions: read-out: TC50 (the source's name)
[19] = system: SMMC-7721; assay: Cytotoxicity against human SMMC-7721 cells measured after 72 hrs by MTT assay; type: functional, cell-based; conditions: SMMC-7721, 72 h
[20] = system: HCT-116; assay: Cytotoxicity against human HCT-116 cells measured after 72 hrs by MTT assay; type: functional, cell-based; conditions: HCT-116, 72 h
[21] = system: Bel7402/5-FU; assay: Cytotoxicity against human BEL-7402/5-FU cells measured after 72 hrs by MTT assay; type: functional, cell-based
[22] = system: Bel-7402; assay: Cytotoxicity against human Bel-7402 cells measured after 72 hrs by MTT assay; type: functional, cell-based; conditions: Bel-7402, 72 h
[23] = system: Huh-7; assay: Cytotoxicity against human Huh-7 cells measured after 72 hrs by MTT assay; type: functional, cell-based; conditions: Huh-7, 72 h
[24] = system: Huh-7; assay: Cytotoxicity against human Huh-7 cells; type: functional, cell-based
[25] = system: HCT-116; assay: Cytotoxicity against human HCT-116 cells; type: functional, cell-based
[26] = system: MCF7; assay: Cytotoxicity against human MCF7 cells; type: functional, cell-based
[27] = system: MCF7; assay: Cytotoxicity against human MCF7 cells measured after 24 hrs by MTT assay; type: functional, cell-based; conditions: MCF7, 24 h
[28] = system: A2780; assay: Cytotoxicity against human A2780 cells measured after 24 hrs by MTT assay; type: functional, cell-based; conditions: A2780, 24 h
[29] = system: COLO 205; assay: Cytotoxicity against human COLO 205 cells measured after 24 hrs by MTT assay; type: functional, cell-based; conditions: COLO 205, 24 h
[30] = system: A549; assay: Cytotoxicity against human A549 cells measured after 24 hrs by MTT assay; type: functional, cell-based; conditions: A549, 24 h
[31] = system: DU-145; assay: Antiproliferative activity against human DU-145 cells incubated for 48 hrs by MTT assay; type: functional, cell-based; conditions: DU-145, 48 h
[32] = system: HCC1395; assay: Antiproliferative activity against human HCC1395 cells incubated for 48 hrs by MTT assay; type: functional, cell-based; conditions: HCC1395, 48 h
[33] = system: HT-1080; assay: Cytotoxicity against human HT-1080 cells; type: functional, cell-based
[34] = system: SGC-7901; assay: Cytotoxicity against human SGC-7901 cells assessed as reduction in optical density by MTT assay; type: functional, cell-based
[35] = Cytotoxicity against human 95-D cells assessed as reduction in optical density by MTT assay; type: functional, cell-based
[36] = system: HepG2; assay: Cytotoxicity against human HepG2 cells assessed as reduction in optical density by MTT assay; type: functional, cell-based
[37] = system: MG-63; assay: Cytotoxicity against human MG-63 cells; type: functional, cell-based

## COc1ccc(-c2nc(Cn3cc(CN4C(=O)c5cccc6cccc(c56)C4=O)nn3)cc3c2[nH]c2ccccc23)cc1OC
[1]
  IC50: 7460 nM
[2]
  IC50: 7460 nM
[3]
  IC50: 7460 nM
[4]
  IC50: 7460 nM

## COc1cc2c3ccccc3n3c(=O)ccc(n1)c23
[5]
  IC50: 503 nM
[6]
  IC50: 503 nM
[7]
  IC50: 503 nM
[8]
  IC50: 503 nM
[9]
  IC50: 503 nM

## COc1ccc2c3ccnc(C)c3n(CC(=O)N/N=C/c3ccc(C(C)(C)C)cc3)c2c1
[10]
  IC50: 4000 nM
[11]
  IC50: 2500 nM
[12]
  IC50: 5000 nM

## COc1cnc2ccc(=O)n3c4cccc(O)c4c1c23
[13]
  EC50: 2 µg/mL (≈ 7.51 µM)

## COC(=O)c1cc2c([nH]c3ccccc32)c(C(C)=O)n1
[12]
  IC50: 9.67 µg/mL

## Cc1ccccc1Cn1c2ccccc2c2cc(C(=O)OCCCCCOC(=O)c3cc4c5ccccc5n(Cc5ccccc5C)c4cn3)ncc21
[14]
  IC50: 6930 nM
[15]
  IC50: 6930 nM
[2]
  IC50: 6930 nM
[16]
  IC50: 6930 nM

## COC(=O)c1cc2c([nH]c3ccccc32)c([C@H](C)O)n1
[17]
  IC50: 75100 nM

## O=C(O)[C@@H](O)Cc1nccc2c1[nH]c1ccccc12
[18]
  CC50: > 50000 nM

## CN(C)c1ccc(-c2nc(C(=O)NCc3ccc(/C=C/C(=O)NO)cc3)cc3c2[nH]c2ccccc23)cc1
[19]
  IC50: 1840 nM
[20]
  IC50: 1840 nM
[21]
  IC50: 1840 nM
[22]
  IC50: 1840 nM
[23]
  IC50: 1840 nM

## C[C@H](O)c1nc(O)cc2c1[nH]c1ccccc12
[17]
  IC50: 79900 nM

## COc1cccc2c1c1c(O)cnc3ccc(=O)n2c31
[13]
  EC50: 2 µg/mL (≈ 7.51 µM)

## Cc1ccc(-c2nc(NCc3ccc(C(=O)NO)cc3)cc3c2[nH]c2ccccc23)cc1
[24]
  IC50: 530 nM
[25]
  IC50: 530 nM
[26]
  IC50: 530 nM

## COc1cc2nc(-c3nc(-c4nccc5c4[nH]c4ccccc45)cs3)[nH]c2cc1OC
[27]
  IC50: 92 nM
[28]
  IC50: 1230 nM
[29]
  IC50: 340 nM
[30]
  IC50: 720 nM

## COc1ccc2c(c1)c1ccnc3ccc(=O)n2c31
[31]
  IC50: 1.58 µg/mL (≈ 6.31 µM)
[32]
  IC50: 14.7 µg/mL (≈ 58.7 µM)

## COc1c(O)ccc2c1c1ccnc3ccc(=O)n2c31
[33]
  IC50: 7200 nM

## COc1ccc2c3ccnc(C)c3n(C)c2c1
[34]
  IC50: < 36000 nM
[35]
  IC50: < 36000 nM
[36]
  IC50: < 36000 nM

## O=C(c1cc2c([nH]c3ccccc32)c(-c2ccccc2)n1)N1CCN(S(=O)(=O)c2ccc(Cl)cc2)CC1
[37]
  IC50: 2800 nM
